Measured values: patent publication US12629371B2, “Compositions and methods for inhibiting kinases” (Inhibikase Therapeutics, Inc., priority 2016, dated 2026)
Each block holds one compound with its values, some of them ahead of it.

Experiments:
ABL = ABL (Homo sapiens, UniProt P00519); experiment: Inhibition profile at 500 nM: ABL / Abl1; type: biochemical; conditions: 500 nM test compound; Table 1
Description: (§1) Then enzyme substrate is added as 10 μl of 2.5×FAM-labeled peptide+ATP solution to each well of the 384-well assay plate The reaction is allowed to proceed at 28° C. and quenched with the addition of 25 μl of stop buffer. The release of fluorescent FAM is quantitated as Percent inhibition=(max−conversion)/(max−min)*100.sp; “max” stands for DMSO control; “min” stands for low control. Convert conversion values to inhibition values. Percent inhibition=(max−conversion)/(max−min)*100. “max” stands for DMSO control; “min” stands for low control.

ARG/Abl2 = ARG/Abl2 (Homo sapiens, UniProt P42684); experiment: Inhibition profile at 500 nM: ARG/Abl2; type: biochemical; conditions: 500 nM test compound; Table 1
Chain of ARG/Abl2 (P42684 whole entry): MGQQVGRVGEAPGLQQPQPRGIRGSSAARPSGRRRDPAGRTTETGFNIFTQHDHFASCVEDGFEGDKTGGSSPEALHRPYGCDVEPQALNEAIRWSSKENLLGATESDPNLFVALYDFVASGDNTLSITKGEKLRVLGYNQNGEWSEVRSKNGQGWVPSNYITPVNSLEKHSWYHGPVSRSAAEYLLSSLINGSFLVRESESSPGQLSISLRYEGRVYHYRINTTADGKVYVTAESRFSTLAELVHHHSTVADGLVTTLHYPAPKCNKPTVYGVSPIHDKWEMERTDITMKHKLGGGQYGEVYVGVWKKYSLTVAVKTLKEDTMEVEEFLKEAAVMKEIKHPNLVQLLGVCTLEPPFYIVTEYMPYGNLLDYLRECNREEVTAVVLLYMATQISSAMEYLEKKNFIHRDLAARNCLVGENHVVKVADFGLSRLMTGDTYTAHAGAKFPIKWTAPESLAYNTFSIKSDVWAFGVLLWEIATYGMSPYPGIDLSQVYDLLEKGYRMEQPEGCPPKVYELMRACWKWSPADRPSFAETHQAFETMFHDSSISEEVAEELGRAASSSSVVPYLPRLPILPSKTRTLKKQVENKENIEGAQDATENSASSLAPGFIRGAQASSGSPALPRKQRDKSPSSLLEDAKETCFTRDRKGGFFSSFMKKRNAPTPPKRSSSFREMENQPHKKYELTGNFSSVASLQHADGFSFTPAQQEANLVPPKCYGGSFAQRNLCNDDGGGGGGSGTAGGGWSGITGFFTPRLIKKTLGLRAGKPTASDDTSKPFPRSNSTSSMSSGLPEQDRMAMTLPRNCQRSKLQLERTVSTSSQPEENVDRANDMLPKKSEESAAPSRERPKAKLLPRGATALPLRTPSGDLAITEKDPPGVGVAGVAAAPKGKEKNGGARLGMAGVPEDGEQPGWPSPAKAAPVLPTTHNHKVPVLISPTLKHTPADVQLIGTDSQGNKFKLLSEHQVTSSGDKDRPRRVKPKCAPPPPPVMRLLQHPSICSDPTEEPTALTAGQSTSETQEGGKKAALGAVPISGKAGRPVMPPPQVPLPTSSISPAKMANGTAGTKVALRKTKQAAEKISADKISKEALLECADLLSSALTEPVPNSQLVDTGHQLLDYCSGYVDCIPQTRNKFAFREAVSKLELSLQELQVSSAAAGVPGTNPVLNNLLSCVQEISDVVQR
Description: as §1

PDGFRa = PDGFRa (Homo sapiens, UniProt P16234); experiment: Inhibition profile at 500 nM: PDGFRa; type: biochemical; conditions: 500 nM test compound; Table 2; read-out: Percent inhibition PDGFRa
Chain of PDGFRa (P16234 24-1089): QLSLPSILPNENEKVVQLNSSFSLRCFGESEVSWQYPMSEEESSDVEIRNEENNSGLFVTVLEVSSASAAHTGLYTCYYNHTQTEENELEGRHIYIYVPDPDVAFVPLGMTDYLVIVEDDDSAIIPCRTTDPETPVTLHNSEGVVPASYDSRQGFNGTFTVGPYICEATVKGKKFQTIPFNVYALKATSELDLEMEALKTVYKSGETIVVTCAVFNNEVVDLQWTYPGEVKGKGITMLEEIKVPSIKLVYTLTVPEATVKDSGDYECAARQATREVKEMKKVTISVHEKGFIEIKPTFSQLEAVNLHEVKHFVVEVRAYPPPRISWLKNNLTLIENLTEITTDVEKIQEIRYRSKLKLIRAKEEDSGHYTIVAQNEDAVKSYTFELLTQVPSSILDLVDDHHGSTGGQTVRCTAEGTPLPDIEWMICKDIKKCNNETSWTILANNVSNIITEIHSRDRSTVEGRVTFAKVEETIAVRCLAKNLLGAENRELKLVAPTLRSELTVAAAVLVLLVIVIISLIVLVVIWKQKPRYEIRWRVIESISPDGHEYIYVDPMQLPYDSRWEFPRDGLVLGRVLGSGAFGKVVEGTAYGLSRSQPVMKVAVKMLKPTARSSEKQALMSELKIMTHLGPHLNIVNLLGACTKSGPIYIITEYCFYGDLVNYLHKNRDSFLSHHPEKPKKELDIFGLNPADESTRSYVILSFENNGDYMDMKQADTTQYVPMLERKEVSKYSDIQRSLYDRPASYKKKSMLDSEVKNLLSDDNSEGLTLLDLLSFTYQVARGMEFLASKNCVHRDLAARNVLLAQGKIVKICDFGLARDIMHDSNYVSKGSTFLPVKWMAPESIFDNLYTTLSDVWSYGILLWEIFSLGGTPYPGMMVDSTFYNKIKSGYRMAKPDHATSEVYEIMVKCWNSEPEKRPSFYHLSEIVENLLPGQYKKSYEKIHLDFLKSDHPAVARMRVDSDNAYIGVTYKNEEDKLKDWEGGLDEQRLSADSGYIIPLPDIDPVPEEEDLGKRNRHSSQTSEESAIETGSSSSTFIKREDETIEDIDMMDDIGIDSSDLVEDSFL
Description: as §1

[1] = Pharmacokinetic parameters in Sprague-Dawley rats; design: AUC(0-t): concentration or dose not given beside the values; conditions: rat, in vivo
Description: Various pharmacokinetic parameters of the compounds described herein were measured in Sprague-Dawley rats.

[2] = Human liver microsome stability; type: in vitro ADME; conditions: human liver microsomes; read-out: Human liver microsome t1/2
mice treated with MPTP = experiment: Mouse MPTP neurotoxicity model; type: in vivo; conditions: for dopamine levels (protection of dopamine-secreting neurons): HPLC-ECD, FIG. 4; for pole test latency: day 14, FIG. 3, control about 5 seconds, MPTP about 30
Description: Certain compounds of the present invention were evaluated using the MPTP neurotoxicity model. MPTP causes oxidative stress, which in turn causes c-Abl1 and/or c-Abl2 phosphorylation in the SNpc of mice treated with MPTP. MPTP administration according to this model produces a reliable, irreversible loss of DA neurons 7 days after the last injection, similar to that observed in PD. MPTP causes greater loss of DA neurons in SNpc and degeneration of DA nerve terminals in the caudate putamen. Many of the cell death signaling events observed in PD postmortem tissue are present in the MPTP model including oxidative stress, nitrosative stress, c-Abl activation, Parkin inactivation and PARIS and AIMP2 elevation and PARP activation. […] Because the model is relatively rapid, this model was used to assess dosing for future studies, and as a preliminary measure of efficacy.
The study design is depicted in FIG. 1. […] Wild type mice (n=5 per group) were divided into 4 treatment groups as follows: saline, MPTP, Drug and MPTP+Drug. Saline and MPTP groups were pre-treated with drug vehicle (unbuffered water) (20 animals total). Drug and MPTP+Drug groups received the test compounds for 6 days administered by oral gavage daily. On the seventh day, the saline and Drug groups received four intra-peritoneal (i.p.) injections of saline at 2 h intervals. The MPTP and MPTP+Drug groups received four intraperitoneal (i.p.) injections of MPTP·HCl (20 mg/kg free base) at 2 hr intervals. After the MPTP injection day, mice were treated for an additional 6 days with saline or an ATK inhibitor of the present invention. Mice in the saline and MPTP only groups received saline vehicle while the Drug and MPTP+Drug groups received an additional week of drug treatment. On the 14th day, mice were given a pole test, then sacrificed. Brain samples were processed for analysis of biogenic amine concentrations, including dopamine (DA), by high-performance liquid chromatography with electrochemical detection (HPLC-ECD). Loss of DA and its metabolites in the striatum is a consistently reliable indication of loss of DA neurons in the SNpc.

c-Abl1 = c-Abl1 (Homo sapiens, UniProt P00519); experiment: Inhibition of Abelson protein kinase c-Abl1 (FAM-labeled peptide assay, IC50); type: biochemical
Chain of c-Abl1 (P00519 whole entry): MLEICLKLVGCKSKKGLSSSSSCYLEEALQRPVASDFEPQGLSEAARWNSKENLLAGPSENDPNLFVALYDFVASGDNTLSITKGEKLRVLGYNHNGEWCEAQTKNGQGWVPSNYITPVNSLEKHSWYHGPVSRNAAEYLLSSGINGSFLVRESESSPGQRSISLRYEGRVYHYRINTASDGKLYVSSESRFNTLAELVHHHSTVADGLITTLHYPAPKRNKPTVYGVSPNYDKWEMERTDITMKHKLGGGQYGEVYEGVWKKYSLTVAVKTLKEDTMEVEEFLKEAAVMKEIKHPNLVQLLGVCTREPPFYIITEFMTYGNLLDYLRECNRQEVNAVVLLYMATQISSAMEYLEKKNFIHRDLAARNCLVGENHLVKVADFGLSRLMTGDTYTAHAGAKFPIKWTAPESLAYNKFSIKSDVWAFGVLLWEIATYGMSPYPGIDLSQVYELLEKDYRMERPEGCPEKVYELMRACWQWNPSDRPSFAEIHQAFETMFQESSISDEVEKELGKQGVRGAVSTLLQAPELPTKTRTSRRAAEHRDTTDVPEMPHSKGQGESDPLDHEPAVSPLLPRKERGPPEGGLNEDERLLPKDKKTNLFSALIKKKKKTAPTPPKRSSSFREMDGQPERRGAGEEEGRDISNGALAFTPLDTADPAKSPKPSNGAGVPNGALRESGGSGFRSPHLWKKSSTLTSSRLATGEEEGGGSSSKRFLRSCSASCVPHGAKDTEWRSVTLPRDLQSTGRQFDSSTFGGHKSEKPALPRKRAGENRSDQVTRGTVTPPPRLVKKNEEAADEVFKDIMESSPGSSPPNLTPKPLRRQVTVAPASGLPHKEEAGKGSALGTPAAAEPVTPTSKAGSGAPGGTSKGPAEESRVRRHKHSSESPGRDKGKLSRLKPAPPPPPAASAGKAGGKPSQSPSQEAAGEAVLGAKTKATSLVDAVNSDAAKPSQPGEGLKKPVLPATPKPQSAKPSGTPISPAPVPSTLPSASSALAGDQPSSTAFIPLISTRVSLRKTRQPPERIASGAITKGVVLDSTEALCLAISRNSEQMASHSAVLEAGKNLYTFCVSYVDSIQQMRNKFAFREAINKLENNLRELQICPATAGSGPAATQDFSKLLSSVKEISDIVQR
Description: (§2) Mix the compounds in intermediate plate for 10 min on shaker. For the assay of enzyme inhibitions, 5 μl of each well from the intermediate plate is transferred to a 384-well plate in duplicates, 10. […] Then enzyme substrate is added as 10 μl of 2.5×FAM-labeled peptide+ATP solution to each well of the 384-well assay plate The reaction is allowed to proceed at 28° C. and quenched with the addition of 25 μl of stop buffer. The release of fluorescent FAM is quantitated as Percent inhibition=(max−conversion)/(max−min)*100. “max” stands for DMSO control; “min” stands for low control. Data are fit in XLFit excel add-in version 4.3.1 to obtain IC50 values. Equation used is: Y=Bottom+(Top−Bottom)/(1+(IC50/X)^HillSlope).

c-Abl2 = c-Abl2 (Homo sapiens, UniProt P42684); experiment: Inhibition of Abelson protein kinase c-Abl2 (FAM-labeled peptide assay, IC50); type: biochemical
Chain of c-Abl2 (P42684 whole entry): as the sequence (P42684 whole entry) above
Description: as §2

[3] = system: animal models of Parkinson's Disease; conditions: literature (J. Neurosci. 31(1); Scientific Reports 4:4874); cited from earlier work

Chain of ABL (P00519 whole entry): as the sequence (P00519 whole entry) above

Compound: Cc1ccc(NC(=O)c2ccc(CN3CCN(C)CC3)cc2)cc1Nc1nccc(-c2cncc(-n3cccn3)c2)n1 [Compound 303]
- Percent inhibition ABL (ABL): 79%
- Percent inhibition ARG/Abl2 (ARG/Abl2): 62%

Compound: Cc1ccc(NC(=O)c2ccc(CN3CCNCC3)cc2)cc1Nc1nccc(-c2cncc(-c3ccncc3)c2)n1 [Compound 870]
- inhibition at 0.5 µM (PDGFRa): 100%

Compound: Cc1ccc(NC(=O)c2ccc(CN3CCNCC3)cc2)cc1Nc1nccc(-c2cncc(-c3ccccn3)c2)n1 [Compound 880]
- inhibition at 0.5 µM (PDGFRa): 100%

Compound: Cc1ccc(NC(=O)c2ccc(CN3CCN(C)CC3)cc2)cc1Nc1nccc(-c2cncc(-c3cnns3)c2)n1 [Compound 8230]
- IC50 (c-Abl1): > 1000 nM
- IC50 (c-Abl2): > 1000 nM

Compound: Cc1ccc(NC(=O)c2ccc(CN3CCN(C)CC3)cc2)cc1Nc1nccc(-c2cncc(-c3snnc3C)c2)n1 [Compound 8240]
- IC50 (c-Abl1): > 1000 nM
- IC50 (c-Abl2): > 1000 nM

Compound: Cc1ccc(NC(=O)c2ccc(CN3CCN(C)CC3)cc2)cc1Nc1nccc(-c2cncc(-c3nncs3)c2)n1 [Compound 8250]
- inhibition at 0.5 µM (PDGFRa): 100%

Compound: Cc1nnc(-c2cncc(-c3ccnc(Nc4cc(NC(=O)c5ccc(CN6CCN(C)CC6)cc5)ccc4C)n3)c2)s1 [Compound 8260]
- inhibition at 0.5 µM (PDGFRa): 100%

Compound: Cc1ccc(NC(=O)c2ccc(CN3CCN(C)CC3)cc2)cc1Nc1nccc(-c2cccnc2)n1 [imatinib, reference compound]
- AUC(0-t) [1]: 2730 ng·h/mL
- Cmax [1]: 241 ng/mL
- Tmax [1]: 4 h
- bioavailability [1]: ~53%
- effectiveness in animal models of Parkinson's Disease [3]: appear effective

The next lines start with results.

- inhibition at 0.5 µM (PDGFRa): 100%
- AUC(0-t) [1]: 3720 ± 1090 ng·h/mL
- Cmax [1]: 465 ± 115 ng/mL
- Tmax [1]: 4 h
- Vd [1]: 6.3 ± 1.1 L/kg
- bioavailability [1]: 47%
- clearance [1]: 21.7 mL/min/kg
- half-life [1]: 3.6 h
- half-life [2]: 0.326 h
Compound: Cc1ccnc(-c2cncc(-c3ccnc(Nc4cc(NC(=O)c5ccc(CN6CCN(C)CC6)cc5)ccc4C)n3)c2)c1 [Compound 830]

- inhibition at 0.5 µM (PDGFRa): 100%
Compound: Cc1ccc(NC(=O)c2ccc(CN3CCN(C)CC3)cc2)cc1Nc1nccc(-c2cncc(-c3ccnn3C)c2)n1 [Compound 831]

- inhibition at 0.5 µM (PDGFRa): 100%
- AUC(0-t) [1]: 3180 ± 930 ng·h/mL
- Cmax [1]: 416 ± 84.5 ng/mL
- Tmax [1]: 4 h
- Vd [1]: 3.6 ± 1.8 L/kg
- bioavailability [1]: 33%
- clearance [1]: 21.7 mL/min/kg
- half-life [1]: 2.6 h
- half-life [2]: 0.408 h
Compound: Cc1ccc(NC(=O)c2ccc(CN3CCN(C)CC3)cc2)cc1Nc1nccc(-c2cncc(-c3ccn(C)n3)c2)n1 [Compound 832]
- dopamine levels (protection of dopamine-secreting neurons) (mice treated with MPTP): protected dopamine-secreting neurons from degeneration
- pole test latency (mice treated with MPTP): recovered to a near-normal latency time

- inhibition at 0.5 µM (PDGFRa): 100%
Compound: Cc1ccc(NC(=O)c2ccc(CN3CCN(C)CC3)cc2)cc1Nc1nccc(-c2cncc(-c3ccns3)c2)n1 [Compound 8170]

- inhibition at 0.5 µM (PDGFRa): 100%
Compound: Cc1cc(-c2cncc(-c3ccnc(Nc4cc(NC(=O)c5ccc(CN6CCN(C)CC6)cc5)ccc4C)n3)c2)sn1 [Compound 8190]

- AUC(0-t) [1]: 1760 ± 268 ng·h/mL
- Cmax [1]: 210 ± 31 ng/mL
- Tmax [1]: 5.3 h
- Vd [1]: 7.8 ± 0.7 L/kg
- bioavailability [1]: 46%
- clearance [1]: 43.3 mL/min/kg
- half-life [1]: 3.3 h
- half-life [2]: 0.348 h
Compound: Cc1ccc(NC(=O)c2ccc(CN3CCN(C)CC3)cc2)cc1Nc1nccc(-c2cncc(-c3nccs3)c2)n1 [Compound 8270]
- dopamine levels (protection of dopamine-secreting neurons) (mice treated with MPTP): protected dopamine-secreting neurons from degeneration
- pole test latency (mice treated with MPTP): not statistically significant

- inhibition at 0.5 µM (PDGFRa): 100%
Compound: Cc1cnc(-c2cncc(-c3ccnc(Nc4cc(NC(=O)c5ccc(CN6CCN(C)CC6)cc5)ccc4C)n3)c2)s1 [Compound 8280]

- inhibition at 0.5 µM (PDGFRa): 100%
Compound: Cc1csc(-c2cncc(-c3ccnc(Nc4cc(NC(=O)c5ccc(CN6CCN(C)CC6)cc5)ccc4C)n3)c2)n1 [Compound 8290]
